Laboratory results taken from a melting point compilation (Tetko et al.; mined from patent text by program, amines drawn as free bases though some values may be those of a salt).

SMILES	melting point [°C]
CCC(=O)Nc1ccc(C2=NN(C(=O)CC)C(C)Cc3cc4c(cc32)OCO4)cc1 (stereo unspecified)	152 to 154
CCCC(Cc1ccc(Cl)cc1)C1(S(=O)(=O)c2ccc(OC)cc2)SC(=O)NC1=O (stereo unspecified)	172 to 174
Cc1nc(C#N)ccc1N	192 to 196
CNC(=O)C(=NOC)C1=C(COc2ccccc2C)CC(C)=C(C)C1	96 to 98
O=C1CCCC2=C1C(c1ccc(Cl)c(C(F)(F)F)c1)C1=C(CCS1)N2 (single isomer, unassigned; (+))	> 250
OCC(I)c1ccccc1 (stereo unspecified)	71 to 72
COC(=O)C[C@H](O)C[C@H](O)C=Cc1c(-c2ccc(F)cc2)c(-c2ccccc2)c(C(=O)NCc2ccc(F)cc2)n1C(C)C	68 to 69
O=c1[nH]c2ccc(Cl)cc2c(=O)n1CCCCN1CC=C(c2ccccc2)CC1	214 to 222
Cc1cc(=O)n(C)c2[nH]n(-c3ccccc3)c(=O)c12	179 to 181
CC(=O)N1CCC(Oc2ccc(N3CCCC3)cc2)CC1	69 to 70
CC1CN(C2=Nc3ccccc3Oc3ccccc32)C(C)CN1 (stereo unspecified)	46 to 48
COC(=O)C1CCCn2c(=O)n(CCCl)c(=O)n21 (stereo unspecified)	94 to 95
CCOC(=O)c1cnn(-c2ccc(OCC(C)(C)C)c(C#N)c2)c1Cl	90 to 92
Cn1c(CC(=O)O)c(C(=O)O)c(Br)c1C(=O)c1ccc(Cl)cc1	261 to 263
BrC(Br)Cc1cccc2[nH]c(-c3ccccc3)cc12	106
Cc1nc2ccccc2n2c(-c3cc(OCC(O)c4ccccn4)ccc3Cl)nnc12 (stereo unspecified)	193 to 194
CS(=O)(=O)c1ccc(-c2cc(C(CCCCCO[N+](=O)[O-])=NO)nn2C2CCCCC2)cc1	111 to 113
CC1=NC(=Cc2ccc(C#N)cc2)C(=O)O1	192 to 193
CCCc1nc2c(N)nc3cc(OCc4cscn4)ccc3c2s1	218 to 220
Clc1ccc(-c2cn([C@H]3CN4CCC3CC4)nn2)cc1Cl	108
O=S(Cc1ccccc1NC1CCCC1)c1nc2ncccc2[nH]1 (stereo unspecified)	134
NC(=O)c1cc2cc(Br)ccc2o1	210 to 213
CN1c2ccc(C=C3SC(=O)NC3=O)cc2CCC1Cc1ccccc1 (stereo unspecified)	214 to 217
O=C(O)c1cc(C(F)(F)F)cc([N+](=O)[O-])c1O	166 to 168

SMILES	melting point [°C]
COCC(=O)Oc1ccc(C=CNC(C)=O)cc1	169 to 170
COc1ccc(S(=O)(=O)n2c(CCC(=O)O)cc3cc(Cl)ccc32)cc1	95 to 98
O=C(CNCCO)Nc1cccc([N+](=O)[O-])c1	145 to 147
O=C1N(c2ccccc2)c2ccccc2C1(Cc1ccccn1)Cc1ccccn1	107 to 111
O=C(NCCCc1ccncc1)N(CCCCC(F)(F)F)CCC12CC3CC(CC(C3)C1)C2	117 to 119
COc1cc(-c2nc(NC(=O)c3c(C)c4cc(C)ccc4n3CC(=O)O)sc2CCC2CCCCC2)c(OC)cc1Cl	151 to 160
CCc1noc(CC(=O)c2ccccc2)c1C(=O)NC	134 to 136
CCC(=O)c1cc(C#N)c(=O)[nH]c1C	259 to 263
COc1cc2c(cc1S(=O)(=O)c1ccccc1)[C@@H](N1CCCCC1=O)[C@H](O)C(C)(C)O2 (relative stereo)	157 to 158
C#CCc1c(C)cc(=O)n(O)c1-c1ccccc1	200
CC(C)C(=O)N(O)Cc1ccc2c(c1)Cc1ccccc1-2	163 to 166
CC(C)(C)C(NC(=O)Nc1ccccc1F)NC(=O)c1ccc(Cl)cc1 (stereo unspecified)	229 to 230
CCOC(=O)c1cnc2[nH]c(=O)ccc2c1Nc1ccc(OC)cc1	243 to 246
C=CCONC(=O)c1nc(-c2ccc(C#N)cc2)cc(N)c1Cl	218 to 221
COc1ccc(C=C(c2ccc(OC)cc2)N(C)C)cc1	67 to 69
c1csc(C2NCCc3ccccc32)c1 (stereo unspecified)	114 to 116
O=C(O)[C@]12CCCC[C@H]1CCc1ccccc12 (relative stereo)	142 to 144
N#CC(C(=O)c1ccc(C(F)(F)F)cc1S(=O)(=O)C1CCCCC1)C(=O)C1CC1 (stereo unspecified)	60 to 62
CCCCN(C)C(N)=C(C#N)C#N	160 to 161
CCOCCN(C(=O)Nc1ccc(C(=O)O)cc1)c1ccc2c(c1)C(C)(C)CCC2(C)C	82 to 85
Cc1ccc(CC(CNC(=O)C(C)c2ccc(NS(C)(=O)=O)c(Cl)c2)COC(=O)C(C)(C)C)cc1C (stereo unspecified)	127 to 129
Cc1nc2c(N)nc3cccnc3c2n1CC1(O)CCN(C(=O)OC(C)(C)C)CC1	233 to 235
CCOP(=O)(OCC)c1nc(N2CCCC2)nc(N2CCCC2)n1	65 to 69

Now from value to compound:

melting point [°C]	SMILES
116 to 120	CCOC(=O)c1c(O)c2ccccc2n(Cc2ccc(F)cc2)c1=O
118 to 119	CCCn1nc(OCc2ccc3ccccc3n2)cc1COc1c(CC)cccc1CC(=O)O
227	NC(CF)(Cc1cccc(O)c1)C(=O)O (stereo unspecified)
162	CC1(C)CC(=O)C(C(=O)c2ccc(Cl)cc2[N+](=O)[O-])C(=O)N1 (stereo unspecified)
120 to 122	CNc1ccc(C(=O)OC)c(OC)n1
103 to 111	N#CC1(c2ccccc2)CCC(O)CC1 (stereo unspecified)
254 to 255	COc1c(-c2cc3c(s2)CC(O)C3)ccc2c(=O)c(C(=O)O)cn(C3CC3)c12 (stereo unspecified)
83 to 84	CCOc1cccc(CC(=O)O)c1OCCCc1cn(-c2ccc(C(F)(F)F)cn2)nc1C(CC)CC
75 to 76	CCCCCCCCCCCCCCCCCCN(CCCCCCCCCCCCCCCCCC)c1ccc(C=Cc2ccc(S(C)(=O)=O)cc2)cc1
197 to 199	CNc1nc(-c2cccc(NC(=O)c3ccccc3Cl)c2)c2cc(OC)c(OC)cc2n1
142 to 145	COc1c(C)c(N2CCN(c3ccc(C(F)(F)F)cc3)CC2)c(C)c2c1OC(C)C2 (stereo unspecified)
> 260	Nc1nc2cc(CO)ccc2n1Cc1cccc2cccnc12
85 to 86	COc1nc2ccc(Br)cc2cc1C(Br)c1ccccc1 (stereo unspecified)
207 to 211	C[C@]1(COc2ccc(N3CCC(Cc4ccc(Cl)cc4)CC3)cc2)Cn2cc([N+](=O)[O-])nc2O1
131 to 132	CC(O)c1nnc(-c2ccc3occ(-c4cccc(OC(F)(F)F)c4)c3c2)o1 (stereo unspecified)
189 to 191	CCc1nc2cc(/C=C/C(=O)NO)ccc2c(=O)n1CCCc1ccccc1
163 to 165	CC1c2ccccc2-c2ccccc2N1S(=O)(=O)c1ccc(O)c(O)c1 (stereo unspecified)
155	CCCCc1cn(Cc2ccc(-c3ccccc3C(=O)O)cc2)c2cccc(SC)c2c1=O
212 to 214	COC(=O)c1cccc2c(C#N)c[nH]c12
118	COc1cc(Cl)ccc1C(Nc1ccc(F)c2nc(C)ncc12)C(O)(C=C(C)C)C(F)(F)F (stereo unspecified)
77 to 79	CCC(O)Cn1cc(-c2cccc(C(F)(F)F)c2)cn1 (stereo unspecified)
141 to 142	COc1cc2c(c3c1OC(C)(C)C3)C(c1cccc(-c3ccccc3)c1)=NC(C)(C)C2
78 to 81	CC(C)(C)OC(=O)CCC1(C(=O)O)CCCC1
213 to 215	O=C(Nc1ccc2c(c1)OC(F)(F)O2)NC12CC3CC(CC(C3)C1)C2
